Reference: PMC7920280, “The Multi-Targeting Ligand ST-2223 with Histamine H3 Receptor and Dopamine D2/D3 Receptor Antagonist Properties Mitigates Autism-Like Repetitive Behaviors and Brain Oxidative Stress in Mice” (International Journal of Molecular Sciences, 2021)

What was measured:
[1] = set-up: method as in PMID 31647973; conditions: systemic pretreatment; cited from earlier work
BTBR and B6 mice [2] = test: Open field test (OFT): locomotor activity and anxiety levels; format: in vivo; conditions: i.p.; for total distance travelled (OFT) / time spent in the periphery (OFT), effect of treatment: B6 and BTBR mice; for total distance travelled (OFT) / time spent in the central arena (OFT) vs vehicle-treated B6 mice / time spent in center (OFT) vs vehicle-treated BTBR mice: ST-2223 2.5, 5 and 10 mg/kg, MEM 5 mg/kg, ARP 1 mg/kg; for time spent in the periphery (OFT), effect of treatment: ST-2223 2.5, 5 or 10 mg/kg, MEM, ARP
Protocol: (§1) The drugs tested included ST-2223 [N-(4-(4-(2-methoxyphenyl)piperazin-1-yl)butyl)-6-(3-(piperidin-1-yl)propoxy)-2-naphthamide] that was designed and synthesized in the Institute of Pharmaceutical and Medicinal Chemistry, Heinrich Heine University Düsseldorf, Germany, and in accordance with previously described methodologies (Supplementary Materials). Aripiprazole (ARP) (1 mg/kg, i.p.) and memantine (MEM, 5 mg/kg, i.p.), as reference drugs, were purchased from Sigma-Aldrich (St. Louis, MO, USA). The CNS-penetrant H3R agonist (R)-α-methylhistamine (RAM, 10 mg/kg, i.p.) was purchased from Sigma-Aldrich, St. Louis, MO, USA. T. Protease and the phosphatase inhibitor cocktail were procured from Thermo Scientific, USA. The assay kit for reduced glutathione (GSH) was obtained from Sigma-Aldrich (St. Louis, MO, USA). The lipid peroxidation assay kit for estimation of malondialdehyde (MDA) was purchased from North West Life Science (Vancouver, WA, USA). The assay kits for superoxide dismutase (SOD) and catalase (CAT) were purchased from Cayman Chemical (Ann Arbor, MI, USA). The drugs were prepared daily using 1% dimethyl sulfoxide (DMSO) in 0.9% saline, for intraperitoneal (i.p.) administration at a volume of 10 mL/kg of body weight. Vehicle treatment consisted of 1% DMSO in 0.9% normal saline. All drugs were i.p. administered 30 min before the behavioral test. The doses of these drugs were chosen based on previous reports. Neurobehavioral assessment was performed blindly with respect to experimental group and drug administration.
The open field test (OFT) systematically evaluates exploration behaviors executed in a novel open field (considered as a novel environment), as an independent control for the effects of the drugs on physical activity that could confound the interpretation of the results from the self-grooming, anxiety and spontaneous alternation. Mice were allowed to freely explore an open-field arena (45 × 45 × 30 cm), to assess general locomotor activity, and anxiety-related behaviors. The center arena was defined as the central 23 × 23 cm area. Mice were given 5 min to habituate in the center area of the arena before the recording started for the actual behavioral assessments. Recording lasted for 10 min using charge-coupled device (CCD) camera-assisted motion tracking apparatus and software (EthoVision 3.1, Noldus Information Technology, The Netherlands), and the total distance moved in the whole arena, time spent in the center and periphery were recorded. Test chambers were cleaned with 70% ethanol after each trial and were allowed to dry until ethanol evaporation and odor dissipation had occurred. When interpreting the results observed in this assessment, less time spent in the center was considered as an indicator for high levels of anxiety-like behaviors and total distance travelled signified the overall locomotor activity of tested animals.

BTBR and B6 mice [3] = test: Self-grooming paradigm (SGP); format: in vivo; conditions: for time spent self-grooming vs vehicle-treated B6 mice / time spent self-grooming vs vehicle-treated BTBR mice: i.p., MEM 5 mg/kg, ARP 1 mg/kg; for time spent self-grooming vs vehicle-treated B6 mice: ST-2223 2.5, 5 and 10 mg/kg; for time spent self-grooming vs vehicle-treated BTBR mice: ST-2223 5 and 10 mg/kg
Protocol: as §1
In the SGP test, mice were scored for spontaneous grooming behaviors. […] To measure SGP, each mouse was placed individually in a standard clear plastic cage (28 cm wide × 17 cm long × 12 cm high) for a total of 20 min. Mice were allowed to freely explore the cage for the entire test, the first 10 min served as a habituation period. After 10 min habituation, each mouse was scored with a stopwatch for 10 min for cumulative time spent grooming all body regions. Grooming behavior included head washing, body grooming, genital/tail grooming and paw and leg licking. The observer sat approximately 1 m from the test cage during the second 10 min of testing.

VPA mouse model of ASD = system: VPA mouse model of ASD; set-up: method as in PMID 26074764; conditions: cited from earlier work
hD3Rs = biological target: T1, hD3Rs (Homo sapiens, UniProt P35462); test: [3H]spiperone displacement assay, CHO cell membranes; format: binding
T1 construct: expressed in transfected cells
Protocol: (§2) In accordance with previous experimental protocols, the binding affinity of ST-2223 for H3Rs was assessed by applying the [^3H]N^α-methylhistamine binding assay, performed with cell membrane preparation of HEK cells stably expressing the human H3R (n = 4). In addition, and as previously described, the binding affinity of ST-2223 for human dopamine hD1Rs and hD5Rs (HEK) against [^3H]SCH23390 and hD2SRs, hD3Rs (CHO) using [^3H]spiperone (n = 3) was assessed (n = 3).

hD2SRs = biological target: T2, hD2SRs (Homo sapiens, UniProt P14416); test: as above; format: binding
T2 construct: expressed in transfected cells
Protocol: as §2

EeAChE = EeAChE (Electrophorus electricus, UniProt O42275); test: Acetylcholinesterase inhibition, modified Ellman's method; format: biochemical, electric eel; conditions: 1 μM (1000 nM) of compound; preliminary data
human H3R = biological target: T3, human H3R (Homo sapiens, UniProt Q9Y5N1); test: [3H]Nα-methylhistamine binding assay, membranes of HEK cells; conditions: HEK cells stably expressing human H3R, n = 4; read-out: Ki (hH3R)
T3 construct: expressed in transfected cells
Protocol: as §2

EqBuChE = EqBuChE (Equus caballus, UniProt P81908); test: Butyrylcholinesterase inhibition, modified Ellman's method; format: biochemical, equine; conditions: 1 μM (1000 nM) of compound; preliminary data, n = 2
hH1R = biological target: T4, hH1R (Homo sapiens, UniProt P35367); test: [3H]pyrilamine binding assay, membranes of CHO cells
T4 construct: expressed in transfected cells

hD1Rs = biological target: T5, hD1Rs (Homo sapiens, UniProt P21728); test: [3H]SCH23390 displacement assay, HEK cell membranes; format: binding
T5 construct: expressed in transfected cells
Protocol: as §2

hD5Rs = biological target: T6, hD5Rs (Homo sapiens, UniProt P21918); test: as above; format: binding
T6 construct: expressed in transfected cells
Protocol: as §2

T1 sequence (P35462 whole entry): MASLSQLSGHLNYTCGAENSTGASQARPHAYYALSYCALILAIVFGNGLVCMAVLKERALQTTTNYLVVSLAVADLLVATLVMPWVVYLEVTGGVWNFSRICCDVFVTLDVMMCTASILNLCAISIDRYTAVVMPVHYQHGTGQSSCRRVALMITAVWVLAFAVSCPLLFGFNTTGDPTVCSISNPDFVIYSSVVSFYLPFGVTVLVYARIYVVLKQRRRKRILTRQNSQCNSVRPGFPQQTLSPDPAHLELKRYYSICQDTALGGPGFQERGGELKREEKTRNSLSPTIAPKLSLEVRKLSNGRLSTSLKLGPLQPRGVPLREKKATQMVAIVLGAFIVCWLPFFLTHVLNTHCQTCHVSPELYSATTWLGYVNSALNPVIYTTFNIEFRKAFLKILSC
T2 sequence (P14416 1-414 isoform P14416-2): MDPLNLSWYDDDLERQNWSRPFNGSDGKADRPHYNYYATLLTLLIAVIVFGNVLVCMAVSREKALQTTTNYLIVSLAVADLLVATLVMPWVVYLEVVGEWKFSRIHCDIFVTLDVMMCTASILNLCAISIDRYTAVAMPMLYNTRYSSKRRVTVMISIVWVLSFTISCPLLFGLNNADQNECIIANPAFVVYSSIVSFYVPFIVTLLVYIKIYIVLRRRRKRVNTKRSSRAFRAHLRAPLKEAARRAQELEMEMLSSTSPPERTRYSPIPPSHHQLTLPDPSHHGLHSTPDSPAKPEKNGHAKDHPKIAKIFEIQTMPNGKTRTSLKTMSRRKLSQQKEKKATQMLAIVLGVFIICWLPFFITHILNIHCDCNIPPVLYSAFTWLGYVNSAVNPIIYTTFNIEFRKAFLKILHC
Chain of EqBuChE (P81908 whole entry): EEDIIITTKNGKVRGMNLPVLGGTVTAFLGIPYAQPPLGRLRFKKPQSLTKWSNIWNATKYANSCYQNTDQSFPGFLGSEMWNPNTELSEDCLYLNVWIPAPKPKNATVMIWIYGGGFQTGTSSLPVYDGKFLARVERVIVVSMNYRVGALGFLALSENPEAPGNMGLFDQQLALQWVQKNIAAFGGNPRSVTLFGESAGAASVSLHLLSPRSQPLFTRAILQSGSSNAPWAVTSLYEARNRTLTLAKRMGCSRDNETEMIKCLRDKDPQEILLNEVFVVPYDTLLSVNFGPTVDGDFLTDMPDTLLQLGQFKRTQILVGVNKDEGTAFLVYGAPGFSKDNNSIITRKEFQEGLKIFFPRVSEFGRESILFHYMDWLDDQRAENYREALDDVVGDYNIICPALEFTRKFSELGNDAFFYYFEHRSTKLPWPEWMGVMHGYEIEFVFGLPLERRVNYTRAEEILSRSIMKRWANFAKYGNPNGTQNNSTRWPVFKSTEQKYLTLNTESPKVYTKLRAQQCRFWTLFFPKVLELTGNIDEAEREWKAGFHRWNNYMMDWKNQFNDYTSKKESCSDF
T4 sequence (P35367 whole entry): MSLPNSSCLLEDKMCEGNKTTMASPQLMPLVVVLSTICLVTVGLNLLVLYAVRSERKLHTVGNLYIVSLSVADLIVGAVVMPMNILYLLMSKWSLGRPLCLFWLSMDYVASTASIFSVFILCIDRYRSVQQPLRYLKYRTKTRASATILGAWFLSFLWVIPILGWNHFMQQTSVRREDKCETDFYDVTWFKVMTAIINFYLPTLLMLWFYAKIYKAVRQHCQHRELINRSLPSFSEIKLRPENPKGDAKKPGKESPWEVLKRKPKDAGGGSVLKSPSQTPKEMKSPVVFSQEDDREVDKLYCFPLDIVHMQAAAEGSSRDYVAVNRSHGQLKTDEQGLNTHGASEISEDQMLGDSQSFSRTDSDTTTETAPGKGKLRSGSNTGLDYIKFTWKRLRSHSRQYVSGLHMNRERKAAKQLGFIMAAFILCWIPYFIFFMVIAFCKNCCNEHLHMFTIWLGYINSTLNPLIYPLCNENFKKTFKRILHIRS
T6 sequence (P21918 whole entry): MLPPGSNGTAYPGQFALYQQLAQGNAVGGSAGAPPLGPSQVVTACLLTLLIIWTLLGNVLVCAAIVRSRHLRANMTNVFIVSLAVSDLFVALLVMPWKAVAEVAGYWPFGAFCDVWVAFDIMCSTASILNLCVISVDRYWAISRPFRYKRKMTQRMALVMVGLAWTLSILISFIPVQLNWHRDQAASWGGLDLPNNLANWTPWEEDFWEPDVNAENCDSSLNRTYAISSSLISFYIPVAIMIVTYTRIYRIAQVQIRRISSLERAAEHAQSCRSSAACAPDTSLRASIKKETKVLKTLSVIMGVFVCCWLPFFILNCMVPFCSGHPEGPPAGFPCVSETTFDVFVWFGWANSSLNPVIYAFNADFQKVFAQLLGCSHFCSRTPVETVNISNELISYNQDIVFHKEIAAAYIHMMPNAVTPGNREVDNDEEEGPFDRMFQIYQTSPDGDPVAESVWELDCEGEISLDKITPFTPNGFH
T5 sequence (P21728 whole entry): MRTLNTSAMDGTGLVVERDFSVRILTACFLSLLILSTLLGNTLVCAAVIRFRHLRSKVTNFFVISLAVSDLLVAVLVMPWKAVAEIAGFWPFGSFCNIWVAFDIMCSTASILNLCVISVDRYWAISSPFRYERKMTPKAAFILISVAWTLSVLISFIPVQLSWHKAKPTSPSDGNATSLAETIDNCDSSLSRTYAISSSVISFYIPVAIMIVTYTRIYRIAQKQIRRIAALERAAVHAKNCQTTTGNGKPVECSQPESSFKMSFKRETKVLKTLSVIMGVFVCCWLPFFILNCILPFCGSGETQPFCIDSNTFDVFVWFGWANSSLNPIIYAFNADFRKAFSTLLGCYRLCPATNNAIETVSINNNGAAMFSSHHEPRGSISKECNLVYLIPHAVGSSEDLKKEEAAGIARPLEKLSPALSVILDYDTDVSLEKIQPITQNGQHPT
T3 sequence (Q9Y5N1 whole entry): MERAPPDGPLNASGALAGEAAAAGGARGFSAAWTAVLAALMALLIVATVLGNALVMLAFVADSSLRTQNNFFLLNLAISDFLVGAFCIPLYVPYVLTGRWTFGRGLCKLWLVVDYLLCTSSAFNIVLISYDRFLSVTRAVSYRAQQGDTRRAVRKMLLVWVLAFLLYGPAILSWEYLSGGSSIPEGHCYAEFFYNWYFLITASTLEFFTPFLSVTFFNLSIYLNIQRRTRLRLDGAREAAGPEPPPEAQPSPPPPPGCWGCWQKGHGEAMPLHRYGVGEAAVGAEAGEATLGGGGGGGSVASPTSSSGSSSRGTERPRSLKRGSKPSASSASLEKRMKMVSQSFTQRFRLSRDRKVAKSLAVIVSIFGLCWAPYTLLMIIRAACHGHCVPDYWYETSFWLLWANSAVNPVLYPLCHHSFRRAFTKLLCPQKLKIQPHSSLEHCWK
Chain of EeAChE (O42275 24-633): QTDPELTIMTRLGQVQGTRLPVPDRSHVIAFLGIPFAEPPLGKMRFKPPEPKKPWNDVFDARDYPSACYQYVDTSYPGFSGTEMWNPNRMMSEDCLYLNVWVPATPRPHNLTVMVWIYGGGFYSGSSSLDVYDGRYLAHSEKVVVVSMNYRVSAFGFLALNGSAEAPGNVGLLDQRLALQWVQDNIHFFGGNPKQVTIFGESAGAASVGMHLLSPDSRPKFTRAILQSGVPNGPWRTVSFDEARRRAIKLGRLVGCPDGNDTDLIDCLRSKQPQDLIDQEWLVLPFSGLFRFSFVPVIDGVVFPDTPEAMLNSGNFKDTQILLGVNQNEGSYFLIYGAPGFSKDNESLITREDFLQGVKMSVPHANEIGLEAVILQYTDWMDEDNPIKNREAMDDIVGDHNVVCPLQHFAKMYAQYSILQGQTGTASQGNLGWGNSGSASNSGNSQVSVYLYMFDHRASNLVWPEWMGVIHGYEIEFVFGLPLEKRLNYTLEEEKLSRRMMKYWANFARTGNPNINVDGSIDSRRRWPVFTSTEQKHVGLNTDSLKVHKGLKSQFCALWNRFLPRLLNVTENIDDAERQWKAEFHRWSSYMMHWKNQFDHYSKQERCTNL

| SMILES | enhanced frequency of self-grooming induced by neuromedin U [1] | total distance travelled (OFT) (BTBR and B6 mice [2]) | time spent in the periphery (OFT), effect of treatment (BTBR and B6 mice [2]) | time spent in the central arena (OFT) vs vehicle-treated B6 mice (BTBR and B6 mice [2]) | time spent in center (OFT) vs vehicle-treated BTBR mice (BTBR and B6 mice [2]) | time spent self-grooming vs vehicle-treated B6 mice (BTBR and B6 mice [3]) | time spent self-grooming vs vehicle-treated BTBR mice (BTBR and B6 mice [3]; BTBR mice) | social deficits and repetitive behaviors (self-grooming, jumping) (VPA mouse model of ASD) | Ki (hD3Rs) [nM] | hD2R/hD3R ratio of Ki values (hD3Rs; preference for hD3R) | Ki (hD2SRs) [nM] | inhibition at 1 µM (EeAChE) [%] | Ki (human H3R) [nM] | inhibition at 1 µM (EqBuChE) [%] | Ki (hH1R) [nM] | self-grooming behavior vs vehicle-treated BTBR mice (BTBR and B6 mice [3]; BTBR mice, ST-2223 2.5 mg/kg i.p.) | Ki (hD1Rs) [nM] | Ki (hD5Rs) [µM] |
| --- | --- | --- | --- | --- | --- | --- | --- | --- | --- | --- | --- | --- | --- | --- | --- | --- | --- | --- |
| O=C1CCc2ccc(OCCCCN3CCN(c4cccc(Cl)c4Cl)CC3)cc2N1 [ARP, aripiprazole] | attenuation | did not show any alteration | no significant effect | did not alter | significantly increased | did not alter | – | – | – | – | – | – | – | – | – | – | – | – |
| CC12CC3CC(C)(C1)CC(N)(C3)C2 [MEM, memantine] | – | did not show any alteration | no significant effect | did not alter | failed to significantly mitigate | significantly reduced | significantly reduced | rescued | – | – | – | – | – | – | – | – | – | – |
| COc1ccccc1N1CCN(CCCCNC(=O)c2ccc3cc(OCCCN4CCCCC4)ccc3c2)CC1 [ST-2223, N-(4-(4-(2-methoxyphenyl)piperazin-1-yl)butyl)-6-(3-(piperidin-1-yl)propoxy)-2-naphthamide] | – | did not show any alteration | no significant effect | did not alter | significantly increased | did not alter | significantly, and dose-dependently, decreased | – | 2 | 10 | 19.8 | < 60 | 4.8 | < 30 | 85.2 | failed to significantly mitigate | 564 | 5.06 |
